Data reported in patent publication US8809352B2, “Sulfonamides as inhibitors of Bcl-2 family proteins for the treatments of cancer” (Novartis AG, priority 2009, dated 2014).

Target: BCL2 (Homo sapiens, UniProt P10415)
Assay: Biacore SPR solution inhibition assay of BCL-2 binding to peptide derivatized sensor surfaces
Conditions: SPR competition; 56 nM BCL2 pre-equilibrated with compound one hour; biotinylated BAK, BAD and NOXA peptide surfaces; 25° C.
Description: The present method includes utility of a Surface plasmon resonance (SPR)-based biosensor (Biacore™ GE Healthcare, Uppsala, Sweden) to characterize BCL-2 inhibitors.
Biacore™ utilizes the phenomenon of surface plasmon resonance (SPR) to detect and measure binding interactions. In a typical Biacore experiment, one of the interacting molecules (ligand) is immobilized on a flexible dextran matrix while the interacting partner (analyte) is allowed to flow across that surface. A binding interaction results in an increase in mass on the sensor surface and a corresponding direct change in the refractive index of the medium in the vicinity of the sensor surface. Changes in refractive index or signal are recorded in resonance units (R.U.) Signal changes due to association and dissociation of complexes are monitored in a non-invasive manner, continuously and in real-time, the results of which are reported in the form of a sensorgram. The SPR assay is configured to examine solution inhibition of BCL-2 binding to peptide derivatized sensor surfaces to generate […] values as a measure of inhibitor potency.
Biacore™ A100 (GE Healthcare, Uppsala, Sweden) was used to conduct all experiments reported herein. Sensor surface preparation and all interaction analyses experiments were performed at 25° C. Reagents were purchased from GE Healthcare. Running buffer containing 10 mM Hepes, pH7.4, 150 mM sodium chloride, 1.25 mM Dithiothreitol, 3% Dimethyl sulfoxide and 0.05% polysorbate 20 were utilized throughout all analyses.
Biotinylated BAK, BAD and NOXA peptides were diluted to 10 nM in running buffer and captured onto a sensor surface pre-derivatized with streptavidin (sensor chip SA) to peptide surface densities in the range 50-100 R.U. Peptide captured surfaces were blocked with 500 μM PEO2-Biotin.
Interaction analyses were performed by first equilibrating each sample within a 6 point three fold compound dilution series in the range 16 μM to 0.004 nM with 56 nM BCL2 for one hour during instrument start-up procedures. Protein compound mixtures were then injected over each peptide surface in parallel for 60 seconds at a flow-rate of 30 μL/min. 56 nM BCL2 control samples were also prepared and run at regular intervals during the assay. Surface regeneration was performed at the end of each analysis cycle by two 30 second injections of 10 mM Glycine, pH 2.5, 1M Sodium Chloride, 0.05% polysorbate 20. Samples and control compound samples were run in duplicate and controls are also run at regular intervals during the assay to monitor surface and assay performance.
Data analyses are carried out using Biacore™ A100 evaluation software v1.1 to validate assay quality. Binding level report points were used relative to BCL2 control samples to calculate % inhibition values for each compound protein mixture.

Chain of BCL2 (P10415 whole entry): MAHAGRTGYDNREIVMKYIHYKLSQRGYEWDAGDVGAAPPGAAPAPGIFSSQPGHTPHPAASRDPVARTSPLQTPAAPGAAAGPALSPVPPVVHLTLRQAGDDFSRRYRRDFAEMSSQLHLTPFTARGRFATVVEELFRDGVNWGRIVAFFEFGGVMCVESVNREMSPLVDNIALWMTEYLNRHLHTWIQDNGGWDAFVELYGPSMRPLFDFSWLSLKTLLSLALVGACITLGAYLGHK

## O=S(=O)(Nc1nc(C(F)(F)F)nc2c1CCN(C1CCN(Cc3ccccc3-c3ccc(Cl)cc3)CC1)C2)c1ccc(N[C@H](CCN2CCOCC2)CSc2ccccc2)c(S(=O)(=O)C(F)(F)F)c1 [Example 68, (R)-N-(7-(1-((4′-chlorobiphenyl-2-yl)methyl)piperidin-4-yl)-2-(trifluoromethyl)-5,6,7,8-tetrahydropyrido[3,4-d]pyrimidin-4-yl)-4-(4-morpholino-1-(phenylthio)butan-2-ylamino)-3-(trifluoromethylsulfonyl)benzenesulfonamide]
  IC50: 0.235 µM

## CN(C)CC[C@H](CSc1ccccc1)Nc1ccc(S(=O)(=O)Nc2ncnc3c2CCN(C2CCN(CC4=C(c5ccc(Cl)cc5)CCC(C)(C)C4)CC2)C3)cc1[N+](=O)[O-] [Example 2]
  IC50: 0.031 µM

## COc1ccc(-c2ccc(Cl)cc2)c(CN2CCC(N3CCc4c(ncnc4NS(=O)(=O)c4ccc(N[C@H](CCN(C)C)CSc5ccccc5)c(S(=O)(=O)C(F)(F)F)c4)C3)CC2)c1 [Example 36, (R)-N-(7-(1-((4′-chloro-4-methoxybiphenyl-2-yl)methyl)piperidin-4-yl)-5,6,7,8-tetrahydropyrido[3,4-d]pyrimidin-4-yl)-4-(4-(dimethylamino)-1-(phenylthio)butan-2-ylamino)-3-(trifluoromethylsulfonyl)benzenesulfonamide]
  IC50: 0.034 µM

## CC(c1cc(F)ccc1-c1ccc(Cl)cc1)N1CCC(N2CCc3c(ncnc3NS(=O)(=O)c3ccc(N[C@H](CCN4CCOCC4)CSc4ccccc4)c(S(=O)(=O)C(F)(F)F)c3)C2)CC1 (stereo partly drawn) [Example 31, N-(7-(1-(1-(4′-chloro-4-fluorobiphenyl-2-yl)ethyl)piperidin-4-yl)-5,6,7,8-tetrahydropyrido[3,4-d]pyrimidin-4-yl)-4-((R)-4-morpholino-1-(phenylthio)butan-2-ylamino)-3-(trifluoromethylsulfonyl)benzenesulfonamide]
  IC50: 0.084 µM

## CN(C)CC[C@H](CSc1ccccc1)Nc1ccc(S(=O)(=O)Nc2ncnc3c2CCN(C2CCN(Cc4c(F)cccc4-c4ccc(Cl)cc4)CC2)C3)cc1S(=O)(=O)C(F)(F)F [Example 21, (R)-N—-(7-(1-((4′-chloro-3-fluorobiphenyl-2-yl)methyl)piperidin-4-yl)-5,6,7,8-tetrahydropyrido[3,4-d]pyrimidin-4-yl)-4-(4-(dimethylamino)-1-(phenylthio)butan-2-ylamino)-3-(trifluoromethylsulfonyl)benzenesulfonamide]
  IC50: 0.03 µM

## CN(C)CC[C@H](CSc1ccccc1)Nc1ccc(S(=O)(=O)Nc2nc(C(F)(F)F)nc3c2CCN(C2CCN(Cc4ccccc4-c4ccc(Cl)cc4)CC2)C3)cc1S(=O)(=O)C(F)(F)F [Example 67, (R)-N-(7-(1((4′-chlorobiphenyl-2-yl)methyl)piperidin-4-yl)-2-(trifluoromethyl)-5,6,7,8-tetrahydropyrido[3,4-d]pyrimidin-4-yl)-4-(4-(dimethylamino)-1-(phenylthio)butan-2-ylamino)-3-(trifluoramethylsulfonyl)benzenesulfonamide]
  IC50: 0.042 µM

## CN(C)CC[C@H](CSc1ccccc1)Nc1ccc(S(=O)(=O)Nc2ncnc3c2CCN(C2CCN(Cc4ccccc4-c4ccccc4Cl)CC2)C3)cc1S(=O)(=O)C(F)(F)F [Example 98]
  IC50: 0.036 µM

## O=S(=O)(Nc1nnc2n1CCN(C1CCN(Cc3ccccc3-c3ccc(Cl)cc3)CC1)CC2)c1ccc(N[C@H](CCN2CCOCC2)CSc2ccccc2)c(S(=O)(=O)C(F)(F)F)c1 [Example 92, N-{6-[1-(4′-Chloro-biphenyl-2-ylmethyl)-piperidin-4-yl]-5,6,7,8-tetrahydro-4H-1,2,3a,6-tetraaza-azulen-3-yl}-4-((R)-3-morpholin-4-yl-1-phenylsulfanylmethyl-propylamino)-3-trifluoromethanesulfonyl-benzenesulfonamide]
  IC50: 0.194 µM

## C[C@H]1CC(N2CCc3c(ncnc3NS(=O)(=O)c3ccc(N[C@H](CCN(C)C)CSc4ccccc4)c([N+](=O)[O-])c3)C2)CCN1Cc1ccccc1-c1ccc(Cl)cc1 (mixture of isomers) [Example 3]
  IC50: 0.062 µM

## [2H]C1(N2CCc3c(ncnc3NS(=O)(=O)c3ccc(N[C@H](CCN4CCCC4)CSc4ccccc4)c(S(=O)(=O)C(F)(F)F)c3)C2)CCN(Cc2cc(F)ccc2-c2ccc(Cl)cc2)CC1 [Example 82, (R)-N-(7-(1-((4′-chloro-4 fluorobiphenyl-2-yl)methyl)-4-dueteropiperidin-4-yl)-5,6,7,8-tetrahydropyrido[3,4-d]pyrimidin-4-yl)-4-(1-(phenylthio)-4-(pyrrolidin-1-yl)butan-2-ylamino)-3-(trifluoromethylsulfonyl) benzene sulfonamide]
  IC50: 0.109 µM

## C[C@H]1CC(N2CCc3c(ncnc3NS(=O)(=O)c3ccc(N[C@H](CCN(C)C)CSc4ccccc4)c(S(=O)(=O)C(F)(F)F)c3)C2)CCN1Cc1ccccc1-c1ccc(Cl)cc1 (mixture of isomers) [Example 4, N-(7-((2S)-1-((4′-chlorobiphenyl-2-yl)methyl)-2-methylpiperidin-4-yl)-5,6,7,8-tetrahydropyrido[3,4-d]pyrimidin-4-yl)-4-((R)-4-(dimethylamino)-1-(phenylthio)butan-2-ylamino)-3-(trifluoromethylsulfonyl)benzenesulfonamide]
  IC50: 0.022 µM

## CC1(C)CCC(c2ccc(Cl)cc2)=C(CN2CCC(N3CCc4c(ncnc4NS(=O)(=O)c4ccc(N[C@H](CCN5CCOCC5)CSc5ccccc5)c(S(=O)(=O)C(F)(F)F)c4)C3)CC2)C1 [Example 8]
  IC50: 0.076 µM

## CN(C)CC[C@H](CSc1ccccc1)Nc1ccc(S(=O)(=O)Nc2ncnc3c2CCN(C2CCN(Cc4ccccc4-c4ccc(Cl)cc4)CC2)C3)cc1C(F)(F)F [Example 53]
  IC50: 0.066 µM

## COC1(Cc2ccccc2-c2ccc(Cl)cc2)CCC(N2CCc3c(ncnc3NS(=O)(=O)c3ccc(N[C@H](CCN(C)C)CSc4ccccc4)c(S(=O)(=O)C(F)(F)F)c3)C2)CC1 (mixture of isomers) [Example 60, (R)-N-(7-(4-((4′-chlorobiphenyl-2-yl)methyl)-4-methoxycyclohexyl)-5,6,7,8-tetrahydropyrido[3,4-d]pyrimidin-4-yl)-4-(4-(dimethylamino)-1-(phenylthio)butan-2-ylamino)-3-(trifluoromethylsulfonyl)benzenesulfonamide]
  IC50: 0.063 µM

## CN(C)CC[C@H](CSc1ccccc1)Nc1ccc(S(=O)(=O)Nc2nc(C(F)(F)F)nc3c2CCN(C2CCN(Cc4ccccc4-c4ccc(Cl)cc4)CC2F)C3)cc1S(=O)(=O)C(F)(F)F (stereo partly drawn) [Example 69, N-(7-(1-((4′-chlorobiphenyl-2-yl)methyl)-3-fluoropiperidin-4-yl)-2-(trifluoromethyl)-5,6,7,8-tetrahydropyrido[3,4-d]pyrimidin-4-yl)-4-((R)-4-(dimethylamino)-1-(phenylthio)butan-2-ylamino)-3-(trifluoromethylsulfonyl)benzenesulfonamide]
  IC50: 0.047 µM

## CC1Cc2c(ncnc2NS(=O)(=O)c2ccc(N[C@H](CCN(C)C)CSc3ccccc3)c(S(=O)(=O)C(F)(F)F)c2)CN1C1CCN(Cc2ccccc2-c2ccc(Cl)cc2)CC1 (stereo in doubt) [Example 48, N—[(S)-7-[1-(4′-Chloro-biphenyl-2-ylmethyl)-piperidin-4-yl]-6-methyl-5,6,7,8-tetrahydro-pyrido[3,4-d]pyrimidin-4-yl]-4-((R)-3-dimethylamino-1-phenylsulfanylmethyl-propylamino)-3 trifluoromethanesulfonyl-benzene sulfonamide]
  IC50: 0.353 µM

## CN(C)CC[C@H](CSc1ccc(Cl)c(Cl)c1)Nc1ccc(S(=O)(=O)Nc2ncnc3c2CCN(C2CCN(Cc4ccccc4-c4ccc(Cl)cc4)CC2)C3)cc1S(=O)(=O)C(F)(F)F [Example 39, N-{7-[1-(4′-Chloro-biphenyl-2-ylmethyl)-piperidin-4-yl]-5,6,7,8-tetrahydro-pyrido[3,4-d]pyrimidin-4-yl}-4-[(R)-1-(3,4-dichloro-phenylsulfanylmethyl)-3-dimethylamino-propylamino]-3-trifluoromethanesulfonyl-benzenesulfonamide]
  IC50: 0.041 µM

## CN(C)CC[C@H](CSc1ccccc1Cl)Nc1ccc(S(=O)(=O)Nc2ncnc3c2CCN(C2CCN(CC4=C(c5ccc(Cl)cc5)CC(C)(C)CC4)CC2)C3)cc1S(=O)(=O)C(F)(F)F [Example 28, (R)-N-(7-(1((2-(4-chlorophenyl)-4,4-dimethylcyclohex-1-enyl)methyl)piperidin-4-yl)-5,6,7,8-tetrahydropyrido[3,4-d]pyrimidin-4-yl)-4-(1-(2-chlorophenylthio)-4-(dimethylamino)butan-2-ylamino)-3-(trifluoromethylsulfonyl)benzenesulfonamide]
  IC50: 0.044 µM
